Legend:
hepatocellular carcinoma = settings: patients with hepatocellular carcinoma; cited from earlier work
germ cell tumors = settings: patients with germ cell tumors; cited from earlier work
[1] = test system: substrates of CYP1A, CYP2C9, CYP2C19, CYP3A4 or P-glycoprotein; settings: cited from earlier work
[2] = test system: triple-negative breast cancer; settings: patients with triple-negative breast cancer; cited from earlier work
[3] = phase I dose escalation study; cited from earlier work
[4] = Tivantinib steady-state plasma pharmacokinetics; type: in vivo, human
gastric cancer = settings: patients with gastric cancer; cited from earlier work
cytochrome P450 enzymes = settings: ref Hycamtin® prescribing information; cited from earlier work

Compound | Responses, monotherapy (hepatocellular carcinoma) | Responses, monotherapy (germ cell tumors) | Interaction with substrates of CYP1A, CYP2C9, CYP2C19, CYP3A4 or P-glycoprotein [1] | Response rate, monotherapy [2] [%] | Maximum tolerated dose, single agent [3] | AUC0–8 hr ([4]; Dose Level 1 (tivantinib 240 mg), n=1) | Clsys (oral clearance), range of observed values ([4]; Dose Levels −1 and A1 (tivantinib 120 mg), n=11) [L/h] | AUC(0-t) ([4]; human, plasma, oral, AUC0–12 hr, median, All Dose Levels, n=12) [ng·h/mL] | Responses, monotherapy (gastric cancer) | Induction or inhibition of cytochrome P450 enzymes (cytochrome P450 enzymes)
O=C1NC(=O)[C@@H](c2cn3c4c(cccc24)CCC3)[C@@H]1c1c[nH]c2ccccc12 [tivantinib] | No responses were seen | No responses were seen | has not been shown to have a significant interaction | 5 | no maximum tolerated dose was identified | 7,243 ng × hr/ml | 2.4 to 44.5 | 10500 | No responses were seen | 
CC[C@@]1(O)C(=O)OCc2c1cc1n(c2=O)Cc2cc3c(CN(C)C)c(O)ccc3nc2-1 [topotecan] |  |  |  |  |  |  |  |  |  | has not been shown to induce or inhibit cytochrome P450 enzymes

From paper PMC6342617 (Cancer chemotherapy and pharmacology, 2018)
